According to US4229452A, “Treatment of inflammatory disorders with 4-trifluoromethylimidazo[1,2-a]quinoxaline” (Westwood Pharmaceuticals, Inc., priority 1979, dated 1980):

Legend:
[1] = system: carrageenin-induced paw edema; assay: carrageenin-induced paw edema test in the rat; assay type: in vivo, rat (Male Charles River); details: for inhibition in vivo at 64 mg/kg: 64 mg/kg po; for inhibition in vivo at 128 mg/kg: 128 mg/kg po; for ED30: calculated from the dose-response line; for inhibition in vivo at 8 mg/kg: 8 mg/kg po; for inhibition in vivo at 16 mg/kg: 16 mg/kg po; for inhibition in vivo at 32 mg/kg: 32 mg/kg po; for reduction of carrageenin-induced edema / anti-edema activity: result in words
Description: Compounds of the present invention were screened in the carrageenin-inducedpaw edema test in the rat. Acetylsalicylic acid was included in the study for reference comparison.
The method employed was the carrageenin edema test [Winter, C. A., Risley, E. A. and Nuss, G. W., Proc. Soc. exp. Biol. Med. 111:544(1962) and Halperin, B. N. and Briot, M., Arch Int. Pharmacody N. 82:247(1950)].
(§1) Male Charles River Rats weighing 145 to 180 g. were employed in the study. Food was withheld for 18 hours before the start of the test, while water was withheld only during the test. Experimental drugs with the desired dose in 3 ml. distilled water (Tween 80)/100 g. body weight were administered orally as suspensions by stomach tube. Control animals, those not receiving drugs, were given the same volume of vehicle by the same route of administration. To induce inflammation, the rear paw was injected into the plantar surface with 0.1 ml. of a 1% carrageenin solution in 0.9% saline. The right paw was also injected with 0.1 ml. of a 0.9% saline solution. At the time of sacrifice, the animals were killed by chloroform. The hind paws were rapidly amputated at tarsocrural joint and weighed on an analytical balance. In all cases the drugs were administered one hour before the paw injections and the sacrifice was performed three hours after the carrageenin injection. The difference in weight (g/100 b.w.) between the carrageenin and the saline injected paws was recorded as the degree of edema.
A comparison of the effectiveness of the test compounds and the standard reference agent, acetylsalicylic acid, in inhibiting edema resulting from the injection of carrageenin is recorded in the following Table XI.
It should be noted that ED30 refers to that dose which inhibits carrageenin-induced paw edema in 30% of the animals in the test group.

[2] = side-effects noted in the carrageenin-induced paw edema test; assay type: in vivo; details: rat; for Side-Effects Noted: rats died: 128 mg/kg po
Description: as §1

SMILES | inhibition in vivo at 64 mg/kg [1] [%] | inhibition in vivo at 128 mg/kg [1] [%] | ED30 ([1]; po) [mg/kg] | Side-Effects Noted ([2]; po) | further results
c1ccc(Cc2nc3ccccc3n3ccnc23)cc1 | 0 | 0 | > 128 | NONE | –
CCCCCCCCCCCCCCCc1nc2ccccc2n2ccnc12 [Compound 119] | – | 9 | > 128 | NONE | –
C(=Cc1nc2ccccc2n2ccnc12)c1ccccc1 | – | 0 | > 128 | NONE | –
CCc1nc2ccccc2n2ccnc12 [Compound 111] | 41 | 57 | 20.5 | – | inhibition in vivo at 4 mg/kg ([1]; 4 mg/kg po): 6%; inhibition in vivo at 8 mg/kg [1]: 23%; inhibition in vivo at 16 mg/kg [1]: 32%; inhibition in vivo at 32 mg/kg [1]: 40%; anti-edemic activity relative to acetylsalicylic acid ([1]; po): approximately 3 X acetylsalicylic acid; reduction of carrageenin-induced edema / anti-edema activity ([1]; po, listed as CH2 CH3): significant reductions of carrageenin-induced edema without attendant side effects; reduction of carrageenin-induced edema / anti-edema activity ([1]; po, listed as ethyl analog): strongest anti-edemic activity; selectivity ratio ([2]; in vivo, po, read-out: dose associated with side effects, as multiple of ED30): ~3
CCCCCCCCc1nc2ccccc2n2ccnc12 [Compound 117] | – | 0 | > 128 | NONE | –
CCCCCCCCCc1nc2ccccc2n2ccnc12 [Compound 118] | – | 0 | > 128 | NONE | –
CC(=O)Oc1ccccc1C(=O)O [ASPIRIN, acetylsalicylic acid, reference compound] | 32.5 | 41 | 59.5 | NONE | inhibition in vivo at 32 mg/kg [1]: 19%; inhibition in vivo at 256 mg/kg ([1]; 256 mg/kg po): 62%
c1ccc2c(c1)ncc1nccn12 [Compound 109, imidazo[1,2-a]quinoxaline] | 6 | 54 | ~100 | – | Side-Effects Noted: rats died [2]: 1/6
CCCc1nc2ccccc2n2ccnc12 [Compound 112] | 0 | 36 | ~128 | – | –
c1ccc(OCc2nc3ccccc3n3ccnc23)cc1 | – | 0 | > 128 | NONE | –
Cc1nc2ccccc2n2ccnc12 [Compound 110] | 29 | 42 | 40 | – | inhibition in vivo at 8 mg/kg [1]: 12%; inhibition in vivo at 16 mg/kg [1]: 28%; inhibition in vivo at 32 mg/kg [1]: 33%; reduction of carrageenin-induced edema / anti-edema activity ([1]; po): significant reductions of carrageenin-induced edema without attendant side effects; Side-Effects Noted: rats died [2]: 1/6
CCCCCCc1nc2ccccc2n2ccnc12 [Compound 115] | 0 | 27 | ~128 | NONE | –
c1ccc2c(c1)nc(C1CCCCC1)c1nccn12 | 0 | 60 | ~100 | NONE | –
c1ccc2c(c1)nc(C1CCC1)c1nccn12 | 0 | 64 | ~100 | Ptosis at 128 mg/kg | –
CCCCCCCCCCCCCCCCCc1nc2ccccc2n2ccnc12 [Compound 120] | 0 | 5 | > 128 | NONE | –
COCc1nc2ccccc2n2ccnc12 [Compound 125] | 1 | 32 | ~128 | – | –
FC(F)(F)c1nc2ccccc2n2ccnc12 [Compound 122, 4-trifluoromethylimidazo[1,2-a]quinoxaline] | 39 | 44 | 35.1 | – | inhibition in vivo at 8 mg/kg [1]: 8%; inhibition in vivo at 16 mg/kg [1]: 29%; inhibition in vivo at 32 mg/kg [1]: 31%; anti-inflammatory activity relative to the ethyl analog ([1]; po): about half; reduction of carrageenin-induced edema / anti-edema activity ([1]; po): significant reductions of carrageenin-induced edema without attendant side effects; dose associated with side effects, as multiple of ED30 ([2]; po): does not show side effects at several multiples of its ED30; Side-Effects Noted ([2]; po, listed as CF3): NONE and did not produce any obvious untoward side effects; Side-Effects Noted ([2]; po, listed as trifluoromethyl analog): did not produce any side effects even at a dose of 128 mg/kg; therapeutic index ([2]; po, result in words): very good therapeutic index; toxicity relative to the non-fluorinated analog ([2]; po, result in words): less toxic
CCCCCc1nc2ccccc2n2ccnc12 [Compound 114] | 5 | 23 | > 128 | NONE | –
CC(C)Cc1nc2ccccc2n2ccnc12 | 23 | 36 | ~70 | – | inhibition in vivo at 16 mg/kg [1]: 0%; inhibition in vivo at 32 mg/kg [1]: 25%
CCCCCCCc1nc2ccccc2n2ccnc12 [Compound 116] | – | 0 | > 128 | NONE | –
